Values of other authors, collected in patent US20040229771A1, “Method of reducing decline of or preserving residual renal function” (priority 2003, published 2004).

System: cell culture
Details: cell culture experiments, reference (2)

In the case of O=CC(=O)C=CC(O)CO (stereo not shown) [3,4-DGE, 3,4-dideoxyglucosone-3-ene], the immunosuppressive effects is given as “immunosuppressive effects”.
